US20230085307A1, “PYRIDAZINONE COMPOUND AND HERBICIDE” (NISSAN CHEMICAL CORPORATION, priority 2019, published 2023)

test system: oval-leafed pondweed; test: Test Example 2: herbicidal activity, application during weed generation under submerged conditions (Table 17, symbol C); format: in vivo, oval-leafed pondweed (Monochoria vaginalis); conditions: AAH 320 g/ha; application during weed generation, submerged conditions
Summary of the method: (§1)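 Wagner pot, alluvial soil, 4 cm flood; mixed sowing of all species; greenhouse 25° C.–30° C. Emulsifiable formulation, water-diluted to predetermined dose, applied to paddy water at 1–2 leaf stage. Effect rated at 3 wk using the earlier test's scoring criteria.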

Row | Structure (SMILES) | herbicidal effect rating, C: oval-leafed pondweed
1 | Cc1nn(C)c(=O)c(-c2c(-c3ccc(OC(C)C)cc3)sc3ccccc23)c1O [1-020] | 3 (Herbicidal rate of 40% or more and less than 70%)
2 | CCCC(=O)Oc1c(C)nn(C)c(=O)c1-c1c(-c2ccc(OC(C)C)cc2)sc2ccccc12 [1-021] | 0 (Herbicidal rate of 5% or less (almost no effect))

test system: late watergrass; test: Test Example 2: herbicidal activity, application during weed generation under submerged conditions (Table 17, symbol A); format: in vivo, late watergrass (Echinochloa oryzicola); conditions: AAH 320 g/ha; application during weed generation, submerged conditions
Summary of the method: as §1

Row | Structure (SMILES) | herbicidal effect rating, A: late watergrass
3 | Cc1nn(C)c(=O)c(-c2c(-c3ccc(OC(C)C)cc3)sc3ccccc23)c1O [1-020] | 2 (Herbicidal rate of 20% or more and less than 40%)
4 | CCCC(=O)Oc1c(C)nn(C)c(=O)c1-c1c(-c2ccc(OC(C)C)cc2)sc2ccccc12 [1-021] | 2 (Herbicidal rate of 20% or more and less than 40%)

test system: Japanese bulrush; test: Test Example 1: herbicidal activity, application before weed generation under submerged conditions (Table 16, symbol B); format: in vivo, Japanese bulrush (Schoenoplectus juncoides); conditions: 320 g/ha applied herbicide
Summary of the method: (§2)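 Alluvial soil was flooded to 4 cm depth, weed seeds were sown mixed and 2.5-leaf rice seedlings were transplanted. On sowing day, the compound's emulsion, diluted in water to a set dose, was applied to the water surface. Plants grew at 25–30 °C and were scored 0–5 after three weeks.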

Row | Structure (SMILES) | Herbicidal effect on B: Japanese bulrush (grade 0-5)
5 | Cc1nn(C)c(=O)c(-c2c(-c3ccc(OC(C)C)cc3)sc3ccccc23)c1O [1-020] | 5 (Herbicidal rate of 90% or more (almost completely withered))
6 | CCCC(=O)Oc1c(C)nn(C)c(=O)c1-c1c(-c2ccc(OC(C)C)cc2)sc2ccccc12 [1-021] | 5 (Herbicidal rate of 90% or more (almost completely withered))

test system: barnyard grass; test: Test Example 3: herbicidal effect by foliage application, Wagner pot (Table 18, symbol H); format: in vivo, barnyard grass (Echinochloa crus-galli); conditions: 320 g/ha
Summary of the method: (§3)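 Plants were sown in alluvial soil held under 0.1–0.5 cm standing water and grown 14 days in a greenhouse at 25–30 °C. An emulsifiable formulation, water-diluted to the set dose, was then sprayed onto the foliage, and effects were scored three weeks later using previously defined criteria.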

Row | Structure (SMILES) | herbicidal effect on H (barnyard grass), rating 0-5
7 | Cc1nn(C)c(=O)c(-c2c(-c3ccc(OC(C)C)cc3)sc3ccccc23)c1O [1-020] | 5 (Herbicidal rate of 90% or more (almost completely withered))
8 | CCCC(=O)Oc1c(C)nn(C)c(=O)c1-c1c(-c2ccc(OC(C)C)cc2)sc2ccccc12 [1-021] | 5 (Herbicidal rate of 90% or more (almost completely withered))

test system: Italian ryegrass; test: Test Example 5: herbicidal effect by foliage application, plastic box (Table 20, symbol K); format: in vivo, Italian ryegrass (Lolium multiflorum); conditions: foliage application, 320 g/ha, three weeks after application
Summary of the method: (§4)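 Sow seeds spot-wise in sterilized diluvial soil; cover with ~1.5 cm soil. Grow 14 days in greenhouse, 25° C. to 30° C. Spray foliage with emulsion diluted to predetermined amount. Rate effect after 3 weeks.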

Row | Structure (SMILES) | herbicidal effect grade, K: Italian ryegrass
9 | Cc1nn(C)c(=O)c(-c2c(-c3ccc(OC(C)C)cc3)sc3ccccc23)c1O [1-020] | 3 (Herbicidal rate of 40% or more and less than 70%)
10 | CCCC(=O)Oc1c(C)nn(C)c(=O)c1-c1c(-c2ccc(OC(C)C)cc2)sc2ccccc12 [1-021] | 3 (Herbicidal rate of 40% or more and less than 70%)

test system: redroot pigweed; test: Test Example 4: herbicidal effect by soil treatment (Table 19, symbol N); format: in vivo, redroot pigweed (Amaranthus retroflexus); conditions: amount of applied herbicide 320 g/ha
Summary of the method: (§5)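 Applied as a water-diluted emulsion, the compound was sprayed onto soil covering newly sown seeds. Evaluation came three weeks after application, in a greenhouse held at 25° C. to 30° C.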

Row | Structure (SMILES) | herbicidal effect rating, N: redroot pigweed
11 | Cc1nn(C)c(=O)c(-c2c(-c3ccc(OC(C)C)cc3)sc3ccccc23)c1O [1-020] | 0 (Herbicidal rate of 5% or less (almost no effect))
12 | CCCC(=O)Oc1c(C)nn(C)c(=O)c1-c1c(-c2ccc(OC(C)C)cc2)sc2ccccc12 [1-021] | 0 (Herbicidal rate of 5% or less (almost no effect))

test system: blackgrass; test: Test Example 5: herbicidal effect by foliage application, plastic box (Table 20, symbol J); format: in vivo, blackgrass (Alopecurus myosuroides); conditions: foliage application, 320 g/ha, three weeks after application
Summary of the method: as §4

Row | Structure (SMILES) | herbicidal effect grade, J: blackgrass
13 | Cc1nn(C)c(=O)c(-c2c(-c3ccc(OC(C)C)cc3)sc3ccccc23)c1O [1-020] | 4 (Herbicidal rate of 70% or more and less than 90%)
14 | CCCC(=O)Oc1c(C)nn(C)c(=O)c1-c1c(-c2ccc(OC(C)C)cc2)sc2ccccc12 [1-021] | 1 (Herbicidal rate of 5% or more and less than 20%)

test system: barnyard grass; test: Test Example 5: herbicidal effect by foliage application, plastic box (Table 20, symbol H); format: in vivo, barnyard grass (Echinochloa crus-galli); conditions: foliage application, 320 g/ha, three weeks after application
Summary of the method: as §4

Row | Structure (SMILES) | herbicidal effect grade, H: barnyard grass
15 | Cc1nn(C)c(=O)c(-c2c(-c3ccc(OC(C)C)cc3)sc3ccccc23)c1O [1-020] | 4 (Herbicidal rate of 70% or more and less than 90%)
16 | CCCC(=O)Oc1c(C)nn(C)c(=O)c1-c1c(-c2ccc(OC(C)C)cc2)sc2ccccc12 [1-021] | 4 (Herbicidal rate of 70% or more and less than 90%)

test system: late watergrass; test: Test Example 1: herbicidal activity, application before weed generation under submerged conditions (Table 16, symbol A); format: in vivo, late watergrass (Echinochloa oryzicola); conditions: 320 g/ha applied herbicide
Summary of the method: as §2

Row | Structure (SMILES) | Herbicidal effect on A: late watergrass (grade 0-5)
17 | Cc1nn(C)c(=O)c(-c2c(-c3ccc(OC(C)C)cc3)sc3ccccc23)c1O [1-020] | 4 (Herbicidal rate of 70% or more and less than 90%)
18 | CCCC(=O)Oc1c(C)nn(C)c(=O)c1-c1c(-c2ccc(OC(C)C)cc2)sc2ccccc12 [1-021] | 4 (Herbicidal rate of 70% or more and less than 90%)

test system: redroot pigweed; test: Test Example 5: herbicidal effect by foliage application, plastic box (Table 20, symbol N); format: in vivo, redroot pigweed (Amaranthus retroflexus); conditions: foliage application, 320 g/ha, three weeks after application
Summary of the method: as §4

Row | Structure (SMILES) | herbicidal effect grade, N: redroot pigweed
19 | Cc1nn(C)c(=O)c(-c2c(-c3ccc(OC(C)C)cc3)sc3ccccc23)c1O [1-020] | 3 (Herbicidal rate of 40% or more and less than 70%)
20 | CCCC(=O)Oc1c(C)nn(C)c(=O)c1-c1c(-c2ccc(OC(C)C)cc2)sc2ccccc12 [1-021] | 4 (Herbicidal rate of 70% or more and less than 90%)

test system: Italian ryegrass; test: Test Example 4: herbicidal effect by soil treatment (Table 19, symbol K); format: in vivo, Italian ryegrass (Lolium multiflorum); conditions: amount of applied herbicide 320 g/ha
Summary of the method: as §5

Row | Structure (SMILES) | herbicidal effect rating, K: Italian ryegrass
21 | Cc1nn(C)c(=O)c(-c2c(-c3ccc(OC(C)C)cc3)sc3ccccc23)c1O [1-020] | 3 (Herbicidal rate of 40% or more and less than 70%)
22 | CCCC(=O)Oc1c(C)nn(C)c(=O)c1-c1c(-c2ccc(OC(C)C)cc2)sc2ccccc12 [1-021] | 1 (Herbicidal rate of 5% or more and less than 20%)

test system: green foxtail; test: Test Example 5: herbicidal effect by foliage application, plastic box (Table 20, symbol G); format: in vivo, green foxtail (Setaria viridis); conditions: foliage application, 320 g/ha, three weeks after application
Summary of the method: as §4

Row | Structure (SMILES) | herbicidal effect grade, G: green foxtail
23 | Cc1nn(C)c(=O)c(-c2c(-c3ccc(OC(C)C)cc3)sc3ccccc23)c1O [1-020] | 3 (Herbicidal rate of 40% or more and less than 70%)
24 | CCCC(=O)Oc1c(C)nn(C)c(=O)c1-c1c(-c2ccc(OC(C)C)cc2)sc2ccccc12 [1-021] | 4 (Herbicidal rate of 70% or more and less than 90%)

test system: wild oat; test: Test Example 5: herbicidal effect by foliage application, plastic box (Table 20, symbol I); format: in vivo, wild oat (Avena fatua); conditions: foliage application, 320 g/ha, three weeks after application
Summary of the method: as §4

Row | Structure (SMILES) | herbicidal effect grade, I: wild oat
25 | Cc1nn(C)c(=O)c(-c2c(-c3ccc(OC(C)C)cc3)sc3ccccc23)c1O [1-020] | 0 (Herbicidal rate of 5% or less (almost no effect))
26 | CCCC(=O)Oc1c(C)nn(C)c(=O)c1-c1c(-c2ccc(OC(C)C)cc2)sc2ccccc12 [1-021] | 0 (Herbicidal rate of 5% or less (almost no effect))

test system: windgrass; test: Test Example 4: herbicidal effect by soil treatment (Table 19, symbol L); format: in vivo, windgrass (Apera spica-venti); conditions: amount of applied herbicide 320 g/ha
Summary of the method: as §5

Row | Structure (SMILES) | herbicidal effect rating, L: windgrass
27 | Cc1nn(C)c(=O)c(-c2c(-c3ccc(OC(C)C)cc3)sc3ccccc23)c1O [1-020] | 0 (Herbicidal rate of 5% or less (almost no effect))
28 | CCCC(=O)Oc1c(C)nn(C)c(=O)c1-c1c(-c2ccc(OC(C)C)cc2)sc2ccccc12 [1-021] | 0 (Herbicidal rate of 5% or less (almost no effect))

test system: Chinese sprangletop; test: Test Example 3: herbicidal effect by foliage application, Wagner pot (Table 18, symbol D); format: in vivo, chinese sprangletop (Leptochloa chinensis); conditions: 320 g/ha
Summary of the method: as §3

Row | Structure (SMILES) | herbicidal effect on D (Chinese sprangletop), rating 0-5
29 | Cc1nn(C)c(=O)c(-c2c(-c3ccc(OC(C)C)cc3)sc3ccccc23)c1O [1-020] | 1 (Herbicidal rate of 5% or more and less than 20%)
30 | CCCC(=O)Oc1c(C)nn(C)c(=O)c1-c1c(-c2ccc(OC(C)C)cc2)sc2ccccc12 [1-021] | 1 (Herbicidal rate of 5% or more and less than 20%)

test system: rice flat sedge; test: Test Example 3: herbicidal effect by foliage application, Wagner pot (Table 18, symbol E); format: in vivo, rice flat sedge (Cyperus iria); conditions: 320 g/ha
Summary of the method: as §3

Row | Structure (SMILES) | herbicidal effect on E (rice flat sedge), rating 0-5
31 | Cc1nn(C)c(=O)c(-c2c(-c3ccc(OC(C)C)cc3)sc3ccccc23)c1O [1-020] | 5 (Herbicidal rate of 90% or more (almost completely withered))
32 | CCCC(=O)Oc1c(C)nn(C)c(=O)c1-c1c(-c2ccc(OC(C)C)cc2)sc2ccccc12 [1-021] | 5 (Herbicidal rate of 90% or more (almost completely withered))
